Assay [1] relates to Sp1-binding probe of p21^WAF1/CIP1 promoter. The assay can be described thus: DNA affinity precipitation assay (DAPA). To be noted: mitotic extract of HeLa cells, 4°C, 1 h, three independent experiments. The protocol: Cell lysate incubated with 1 μg of binding probes in 500 μl binding of buffer (2 mM MgCl2, 60 mM KCl, 20 mM Tris-HCl pH 7.8, 5% glycerol, 0.5 mM EDTA and 0.02% NP-40). After incubation for 1 h at 4°C, the mixture was incubated with 30 μl of streptavidin-agarose beads (GE Healthcare Life Sciences) for 1 h at 4°C. The mixture was washed three times by binding buffer. The proteins in the beads were eluted by 2X sample buffer and analysed by SDS-PAGE and immunoblotting. The Sp1-binding probe 5′-[…]-3′, localized from −82 to −50 bp within the promoter of p21^WAF1/CIP1, was biotinylated at 5′ termini and then annealed with complementary strands.

The test system of assay [2] is HeLa cells. The assay can be described thus: Sp1 localisation on chromosomes during mitosis. The format is cell-based. To be noted: nocodazole 16 h. The protocol:
The cells were fixed with 4% paraformaldehyde (Sigma-Aldrich) in PBS according to a method described previously ([3]). Immunostaining was conducted with primary antibodies such as anti-Sp1, anti-GFP tag (Santa Cruz Biotechnology, Santa Cruz, CA), or anti-Pin1 (Calbiochem, San Diego, CA) antibodies. The cells were then treated with Alexa Fluor 488-conjugated goat anti-mouse or rabbit immunoglobulin G (IgG) and Alexa Fluor 568-conjugated goat anti-mouse or rabbit IgG polyclonal antibodies (Jackson ImmunoResearch Laboratories Inc., West Grove, PA). Finally, the cells were mounted in 90% glycerol containing 4'-6-diamidino-2-phenylindole (DAPI) (Invitrogen), and examined using a confocal laser-scanning microscope (FluoView^TM FV 1000; Olympus, Melville, NY) or immunofluorescence microscope (Personal DV Applied Precision, Issaquah, WA). The images were analysed with softWoRx software (Applied Precision Inc.).

Assay [3] has as its system HeLa cells. The assay can be described thus: Flow cytometry with PI staining (cell cycle). It counts as cell-based. To be noted: nocodazole 16 h. The procedure: The cells washed by cold PBS and then fixed in 70% alcohol or 4% paraformaldehyde at 4°C for 2 h. After fixation, the cells washed by cold PBS and treated with 0.1% TritonX-100, 10μg/ml RNase and 50 μg/ml propidium iodide for 1 h. The cells were analysed by flow cytometer (Cell Lab Quanta™ SC; Beckman Coulter or FACSCalibur; BD Biosciences).

Assay [4] concerns HeLa cells. The assay can be described thus: Protein level of GFP-Sp1 constructs in HeLa cells (western blot). The format is cell-based. To be noted: equal amount of plasmids. The procedure: (§1) HeLa cells and mouse embryonic fibroblasts (MEFs) were cultured in DMEM containing 10% of FBS, 100μg/ml streptomycin sulfate and 100 units/ml penicillin G sodium at 37°C, 5% CO2. For transfection of GFP-Sp1, GFP-Sp1-T739A, GFP-Sp1-T739D, GFP-Sp1 (1-740), GFP-Sp1-4A, GFP-Sp1-4D, HA-Sp1, HA-Sp1-4A (S720A, T723A, T737A and T739A), HA-Sp1-4D (S720D, T723D, T737D and T739D), pGL2, pGL2-p21, Sp1 shRNA, or Pin1 shRNA, 2 μg of plasmids was incubated with 2 μl of Lipofectamine in 200 μl of OPTI-MEM for 30 min in room temperature. After incubation, the mixture of plasmids and Lipofectamine in OPTI-MEM was added into 2 ml of OPTI-MEM. The cells were incubated with the mixture of plasmids and Lipofectamine for 6 h. The cells were then incubated in fresh Dulbecco's modified Eagle's medium (DMEM) for 18 or 36 h. The cells were collected for immunoprecipitation or immunoblotting.
Cell lysates or immunoprecipitation samples were fractionated by sodium dodecyl sulfate-polyacrylamide gel electrophoresis (SDS-PAGE) and transferred to polyvinylidene fluoride (PVDF) membrane using a transfer apparatus according to the manufacturer's protocols (Bio-Rad). After incubation with 3% non-fat milk or 2% bovine serum albumin in Tris-buffered Saline with Tween 20 buffer (TBST buffer, 10 mM Tris-HCl pH 8.0, 150 mM NaCl and 0.5% Tween 20) for 1 h, membranes were incubated with antibodies at 4°C overnight. […]
On the technique in general: A western blot detects proteins with antibodies after separation by electrophoresis.

In assay [5] the test system is RNF4. The assay can be described thus: RNF4 co-immunoprecipitation with GFP-Sp1 constructs. The format is binding. The settings on record: HeLa, anti-GFP immunoprecipitation, vs full-length Sp1 (1–785). The protocol:
Cell lysates were prepared by using mRIPA buffer (50 mM Tris-HCl, pH 7.8, 150 mM NaCl, 5 mM ethylenediaminetetraacetic acid (EDTA), 0.1% Triton-X100, 0.05% NP-40). The lysates were incubated with anti-Sp1 (1:500), anti-CDK1 (1:200), anti-Pin1 (1:250), anti-HA tag (1:250), or anti-GFP tag (1:200) antibodies at 4°C for 1 h. After 1 h incubation, the mixture was incubated with Protein A or G Sepharose agarose beads at 4°C for 1 h. The beads were collected and washed three times by mRIPA buffer. The beads were added 2X electrophoresis sample buffer and analysed by immunoblotting.

Assay [6] deals with p21^CIP/WAP. The assay can be described thus: p21^CIP/WAP luciferase activity assay. The format is cell-based. To be noted: HeLa, vs GFP-Sp1 (1–785). The procedure: as §1
Assay [7] has as its system Pin1. The assay can be described thus: Isothermal titration calorimetry binding of Sp1 peptides to Pin1. To be noted: 25°C. The protocol: (§2) Additionally, two other point mutants of Pin1, K63A and C113A, which are PPIase-activity-deficient, were generated and used in the crystallographic experiments ([42]). For the crystallization and the thermodynamic parameters of Pin1 and Sp1 peptide binding analysis, protein expression and crystallization of Pin1 was performed in slightly modified as described previously ([41]). In brief, the gene for Pin1 was cloned into pET28a with an N-terminal His12-tag and a thrombin cleavage site. R14A, R14A/K63A and R14A/C113A mutants of Pin1 were generated using the PCR-based QuikChange site-directed mutagenesis kit (Agilent). The correct construct was transformed into E. coli BL-21 (DE3) competent cells for protein expression. Transformed BL21 (DE3) bacteria were grown in Luria Bertani (LB) medium containing […] kanamycin at 30°C. Bacteria were induced with 1 mM isopropyl β-D-thiogalactoside (IPTG) overnight at 20°C. Pin1 proteins were purified by Ni^2+-nitrilotriacetic acid affinity chromatography, digested with thrombin and further purified by second run of Ni^2+-nitrilotriacetic acid affinity chromatography. The protein was prepared at 10–20 mg/ml in 10mM HEPES pH 7.5 containing 100 mM NaCl and 1 mM DTT for crystallization. Crystals were grown from a drop composed of 1 ml of protein solution and 1 ml of reservoir solution consisting of 2.0–2.5 M (NH4)2SO4, 1–2% (w/v) PEG 400 and 1–2 mM DTT in 0.1M HEPES buffer pH 7.5 equilibrated at 4°C against 0.5 ml of reservoir solution using the hanging-drop vapor-diffusion method. Crystals of Pin1 in complex with Sp1 peptides were obtained in co-crystallization experiments with the Pin1 protein pre-mixed with 10-fold Sp1 peptide and incubated at 4°C for 4 h before crystallization.
Thermodynamic parameters of Pin1 and Sp1 peptide binding were determined using a Micro-Cal iTC200 (GE Healthcare Life Sciences). All samples were filtered with […] cutoff filters (Millipore). The buffer for Pin1 and Sp1 peptide solutions consisted of 10 mM HEPES pH 7.5, 100 mM NaCl and 1 mM DTT. A […] solution of Sp1 peptide was directly titrated into a solution of […] Pin1 in […] aliquots. The experiments were performed at 25°C. Data were then analysed using the software origin.
To confirm that Pin1 indeed affects the C-terminal conformation of Sp1, Pin1 was purified and oligopeptides of the region 735–745 of Sp1, with or without phosphate at Thr739, were synthesized for ITC and X-ray crystallography experiments (Figure 3). […] Furthermore, two other point mutants of Pin1, K63A and C113A, which are PPIase-activity-deficient, were generated and used in the crystallographic experiments ([42]).
Figure 3. Pin1 recruitment alters the conformation of C-terminal Sp1. (A) The binding analyses of Thr739-Sp1 (left panel) and Thr739(p)-Sp1 (right panel) peptides to Pin1 were determined by ITC. Representative plots from an ITC experiment are shown with raw data in the upper panel and curve fit in the lower panel. The Thr739-Sp1 or Thr739(p)-Sp1 peptides were titrated into the reaction cell containing Pin1 protein. […] The 2Fo–Fc electron density is shown in blue color, contoured at 1σ. […] Overall structure (i) and a close-up view of the active-site pocket of Pin1 (ii). […] Positive charges on the electrostatic surfaces are drawn in blue and negative charges in red.
Background: In ITC the heat of successive injections is recorded.

Assay [8] deals with Pin1 R14A mutant. The assay can be described thus: X-ray crystallography of Sp1 peptide with Pin1 R14A. The settings on record: co-crystallization, Pin1 pre-mixed with 10-fold peptide, 4°C for 4 h. It counts as binding. The protocol:
as §2, with “Crystals were grown from a drop composed of 1 ml of protein solution and 1 ml of reservoir solution consisting of 2.0–2.5 M (NH4)2SO4, 1–2% (w/v) PEG 400 and 1–2 mM DTT in 0.1M HEPES buffer pH 7.5 equilibrated at 4°C against 0.5 ml of reservoir solution using the hanging-drop vapor-diffusion method. Crystals of Pin1 in complex with Sp1 peptides were obtained in co-crystallization experiments with the Pin1 protein pre-mixed with 10-fold Sp1 peptide and incubated at 4°C for 4 h before crystallization.” left out
(§3) All crystals were flash-cooled to 100 K in a stream of cold nitrogen prior to data collection. […] The electron density was calculated by Refmac5 ([43]). […]

The subject of assay [9] is Pin1 R14A/C113A mutant. The assay can be described thus: X-ray crystallography of Sp1 peptide with Pin1 R14A/C113A. It counts as binding. To be noted: ablated isomerase activity; co-crystallization, 10-fold peptide, 4°C for 4 h. The protocol: as §2, with “Crystals were grown from a drop composed of 1 ml of protein solution and 1 ml of reservoir solution consisting of 2.0–2.5 M (NH4)2SO4, 1–2% (w/v) PEG 400 and 1–2 mM DTT in 0.1M HEPES buffer pH 7.5 equilibrated at 4°C against 0.5 ml of reservoir solution using the hanging-drop vapor-diffusion method. Crystals of Pin1 in complex with Sp1 peptides were obtained in co-crystallization experiments with the Pin1 protein pre-mixed with 10-fold Sp1 peptide and incubated at 4°C for 4 h before crystallization.” left out
as §3

The results in this text go back to publication PMC4267622, “Pin1-mediated Sp1 phosphorylation by CDK1 increases Sp1 stability and decreases its DNA-binding activity during mitosis” (Nucleic Acids Research, 2014).

Take “Sp1-4D: Sp1 mutant S720D, T723D, T737D and T739D”: the “DNA-binding activity to the p21^CIP/WAP promoter” value in [1] is on record as “decreased the DNA-binding activity of Sp1 to the p21^CIP/WAP promoter”. Further, the “removal from chromosomes during mitosis” value in assay [2] is on record as “completely removed from the chromosomes”. In [3], this substance registered a cells entered mitosis of 75%.

For the substance “GFP-Sp1 (1–740): GFP-Sp1 lacking the C-terminal end (741–785)”, the “DNA-binding activity to the p21^CIP/WAP promoter” value in [1] is recorded as “increased the DNA-binding activity of Sp1 during mitosis”. In assay [4], the protein level entry is given as “higher than that of GFP-Sp1 (1–785)”. Further, the “interaction with RNF4” value in assay [5] is “decreased interaction between RNF4 and GFP-Sp1 (1–740)”. Besides, the “transcriptional activity of p21^CIP/WAP” value in assay [6] was “increased the transcriptional activity of p21^CIP/WAP”.

With “Thr739(p)-Sp1 peptide: oligopeptide of the region 735–745 of Sp1, with phosphate at Thr739”, the Ka in [7] (ITC curve fit, 10 mM HEPES pH 7.5, 100 mM NaCl, 1 mM DTT) was 7.4 ± 1.4 × 10^3 M^−1. For the same substance, in assay [7] (ITC curve fit, pH 7.5), the “N (stoichiometry of bound Thr739(p)-Sp1 peptide per Pin1 protein)” value is reported as 0.93 ± 0.25, the ΔH was -28.5 ± 9.2 kJ/mol and the ΔS was -5.0 cal/mol/K. Further, the “interaction with Pin1” value in assay [7] (ITC, 10 mM HEPES pH 7.5, 100 mM NaCl, 1 mM DTT) is listed as “Pin1 could interact with the Thr739(p)-Sp1 peptide”. Besides, the “configurations of electron density map of bound peptide” value in assay [8] is listed as “one configuration”. Also, the “configurations of electron density map of bound peptide” value in assay [9] is on record as “two configurations”.
